Measurements published in PubChem BioAssay (NCI).
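Tested at 5 concentrations; 48 h exposure; 96-well plates; endpoints linearly interpolated, else capped at highest concentration. TGI is the concentration that stops growth completely.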

Experiments:
Experiment in all cases: growth of human tumour cells (NCI), 48 h
SK-MEL-28 melanoma = test system: SK-MEL-28 melanoma
HCC-2998 colon = test system: HCC-2998 colon
M14 melanoma = test system: M14 melanoma
UO-31 renal = test system: UO-31 renal
SW-620 colon = test system: SW-620 colon
IGROV1 ovarian = test system: IGROV1 ovarian
HCT-15 colon = test system: HCT-15 colon
SF-539 CNS = test system: SF-539 CNS
NCI-H460 lung = test system: NCI-H460 lung
UACC-257 melanoma = test system: UACC-257 melanoma
RXF 393 renal = test system: RXF 393 renal
RPMI-8226 leukemia = test system: RPMI-8226 leukemia
SNB-75 CNS = test system: SNB-75 CNS
TK-10 renal = test system: TK-10 renal
M19-MEL melanoma = test system: M19-MEL melanoma
SK-MEL-2 melanoma = test system: SK-MEL-2 melanoma
SNB-78 CNS = test system: SNB-78 CNS
CCRF-CEM leukemia = test system: CCRF-CEM leukemia
K-562 leukemia = test system: K-562 leukemia
HOP-92 NSCLC = test system: HOP-92 NSCLC

`Cc1cc(=O)[nH]c(NN2C(Cl)C(=O)C2c2ccc([N+](=O)[O-])cc2)n1` (stereo not given) gave a TGI (SK-MEL-28 melanoma) of 27.1 µM, a TGI (HCC-2998 colon) of 31.1 µM and a TGI (M14 melanoma) of 23 µM. It also gave a TGI (UO-31 renal) of 43.1 µM, a TGI (SW-620 colon) of 79.7 µM and a TGI (IGROV1 ovarian) of 16.1 µM. The TGI (HCT-15 colon) was 22.5 µM, the TGI (SF-539 CNS) was 27 µM and the TGI (NCI-H460 lung) was 18.8 µM. It also gave a TGI (UACC-257 melanoma) of 37.6 µM, a TGI (RXF 393 renal) of 14.1 µM and a TGI (RPMI-8226 leukemia) of 30.9 µM. The TGI (SNB-75 CNS) was 9.11 µM, the TGI (TK-10 renal) was 29.7 µM and the TGI (M19-MEL melanoma) was 17.3 µM. The TGI (SK-MEL-2 melanoma) was 19.6 µM, the TGI (SNB-78 CNS) was 25 µM and the TGI (CCRF-CEM leukemia) was 6.6 µM. The TGI (K-562 leukemia) was 15 µM and the TGI (HOP-92 NSCLC) was 27.3 µM.
